Laboratory results: patent publication US20200368247A1, “CENICRIVIROC FOR THE TREATMENT OF FIBROSIS” (Tobira Therapeutics, Inc., priority 2014, published 2020)

Legend:
[1] = From the text: (§1) Subjects with a history of HIV-2, hepatitis B and/or C, cirrhosis of the liver or any known active or chronic active liver disease were excluded from the study.
Most AEs were mild or moderate (Grade 1 or Grade 2). […] None of the Grade ≥3 AEs (preferred terms) were reported in more than 1 subject. Table 28 provides an overview of deaths, SAES, AEs, AEs by severity, AEs related to study medication, and AE leading to discontinuation.

[2] = Study 202 fasting metabolic laboratory parameters; format: in vivo, human
From the text: All abnormalities in total cholesterol, LDL cholesterol, triglycerides, or glucose were Grade 1 or Grade 2.
Mean baseline values and changes from baseline in HbA1c, HOMA-IR, fasting LDL, fasting HDL, fasting total cholesterol, fasting total cholesterol/HDL ratio, and fasting triglycerides are shown in Table 36.

HIV-1 = test: Study 202 Phase 2b, virologic response (HIV-1 RNA <50 copies/mL, FDA Snapshot), with FTC/TDF; details: for subjects with virologic success (HIV-1 RNA <50 copies/mL): EFV
From the text: as §1
The primary efficacy endpoint was virologic response at Week 24, defined as HIV-1 RNA <50 copies/mL using the FDA Snapshot Algorithm.

[3] = All CVC (N = 115), EFV (N = 28), through Week 48

SMILES: O=C1Nc2ccc(Cl)cc2[C@@](C#CC2CC2)(C(F)(F)F)O1 [EFV, efavirenz, reference compound]
- Deaths ([1]; All CVC (N = 115), EFV (N = 28)): 0 n
- SAE: Suicidal ideation [1, 3]: 1 n
- Grade 3 or 4 AE: Suicidal ideation ([1]; All CVC (N = 115), EFV (N = 28; Grade 4 event)): 1 n
- AE leading to discontinuation: Abnormal dreams ([1]; human, in vivo, 48 week): 1 n
- AE leading to discontinuation: Aggression ([1]; human, in vivo, 48 week): 0 n
- AE leading to discontinuation: Anxiety ([1]; human, in vivo, 48 week): 1 n
- AE leading to discontinuation: Depression ([1]; human, in vivo, 48 week): 1 n
- AE leading to discontinuation: Dermatitis allergic ([1]; human, in vivo, 48 week): 1 n
- AE leading to discontinuation: Ear and labyrinth disorders ([1]; human, in vivo, 48 week): 1 n
- AE leading to discontinuation: Insomnia ([1]; human, in vivo, 48 week): 3 n
- AE leading to discontinuation: Psychiatric disorders ([1]; human, in vivo, 48 week): 3 n
- AE leading to discontinuation: Rash ([1]; human, in vivo, 48 week): 1 n
- AE leading to discontinuation: Skin and subcutaneous tissue disorders ([1]; human, in vivo, 48 week): 2 n
- AE leading to discontinuation: Tachyphrenia ([1]; human, in vivo, 48 week): 1 n
- AE leading to discontinuation: Thinking abnormal ([1]; human, in vivo, 48 week): 0 n
- AE leading to discontinuation: Tinnitus ([1]; human, in vivo, 48 week): 1 n
- Depression, % ([1]; human, in vivo, 48 week): (11%)
- Diarrhoea, % ([1]; human, in vivo, 48 week): (11%)
- Fatigue, % ([1]; human, in vivo, 48 week): (4%)
- Nausea, % ([1]; human, in vivo, 48 week): (21%)
- Rash, % ([1]; human, in vivo, 48 week): (18%)
- Subjects with AEs leading to discontinuation of study medication ([1]; human, in vivo, 48 week): 6 n
- Subjects with AEs related to study medication ([1]; human, in vivo, 48 week): 20 n
- Subjects with AEs, by worst grade severity: Grade 1 ([1]; human, in vivo, 48 week): 10 n
- Subjects with AEs, by worst grade severity: Grade 2 ([1]; human, in vivo, 48 week): 13 n
- Subjects with AEs, by worst grade severity: Grade 3 ([1]; human, in vivo, 48 week): 3 n
- Subjects with AEs, by worst grade severity: Grade 4 ([1]; human, in vivo, 48 week): 0 n
- Syphilis, % ([1]; human, in vivo, 48 week): (11%)
- Upper respiratory tract infection, % ([1]; human, in vivo, 48 week): (7%)
- AE leading to discontinuation: Disturbance in attention ([1]; human, in vivo, 48 weeks): 1 n
- AE leading to discontinuation: Dizziness ([1]; human, in vivo, 48 weeks): 2 n
- AE leading to discontinuation: Eye disorders ([1]; human, in vivo, 48 weeks): 1 n
- AE leading to discontinuation: Gastrointestinal disorders ([1]; human, in vivo, 48 weeks): 1 n
- AE leading to discontinuation: General disorders and administration site conditions ([1]; human, in vivo, 48 weeks): 0 n
- AE leading to discontinuation: Hypoaesthesia ([1]; human, in vivo, 48 weeks): 1 n
- AE leading to discontinuation: Malaise ([1]; human, in vivo, 48 weeks): 0 n
- AE leading to discontinuation: Musculoskeletal and connective tissue disorders ([1]; human, in vivo, 48 weeks): 1 n
- AE leading to discontinuation: Musculoskeletal discomfort ([1]; human, in vivo, 48 weeks): 1 n
- AE leading to discontinuation: Nausea ([1]; human, in vivo, 48 weeks): 1 n
- AE leading to discontinuation: Nervous system disorders ([1]; human, in vivo, 48 weeks): 4 n
- AE leading to discontinuation: Photophobia ([1]; human, in vivo, 48 weeks): 1 n
- AEs leading to discontinuation of study medication, % ([1]; human, in vivo, 48 weeks): 21%
- AEs leading to discontinuation of study medication, subjects ([1]; human, in vivo, 48 weeks): 6 subjects
- Abnormal dreams, % ([1]; human, in vivo, 48 weeks): (21%)
- Any AE leading to discontinuation of study drug ([1]; human, in vivo, 48 weeks): 6 n
- Any Grade 3 AE ([1]; human, in vivo, 48 weeks): 3 n
- Any Grade 4 AE ([1]; human, in vivo, 48 weeks): 1 n
- Any SAE ([1]; human, in vivo, 48 weeks): 1 n
- Dizziness, % ([1]; human, in vivo, 48 weeks): (29%)
- Grade 3 or 4 AE: Abdominal pain ([1]; human, in vivo, 48 weeks): 0 n
- Grade 3 or 4 AE: Blindness unilateral ([1]; human, in vivo, 48 weeks): 0 n
- Grade 3 or 4 AE: Blood creatine phosphokinase increased ([1]; human, in vivo, 48 weeks): 0 n
- Grade 3 or 4 AE: Cardiac disorders ([1]; human, in vivo, 48 weeks): 0 n
- Grade 3 or 4 AE: Corneal infection ([1]; human, in vivo, 48 weeks): 0 n
- Grade 3 or 4 AE: Depression ([1]; human, in vivo, 48 weeks): 1 n
- Grade 3 or 4 AE: Dermatitis allergic ([1]; human, in vivo, 48 weeks): 1 n
- Grade 3 or 4 AE: Ear and labyrinth disorders ([1]; human, in vivo, 48 weeks): 1 n
- Grade 3 or 4 AE: Eye disorders ([1]; human, in vivo, 48 weeks): 0 n
- Grade 3 or 4 AE: Gastrointestinal disorders ([1]; human, in vivo, 48 weeks): 0 n
- Grade 3 or 4 AE: General disorders and administration site conditions ([1]; human, in vivo, 48 weeks): 0 n
- Grade 3 or 4 AE: Infections and infestations ([1]; human, in vivo, 48 weeks): 0 n
- Grade 3 or 4 AE: Investigations ([1]; human, in vivo, 48 weeks): 1 n
- Grade 3 or 4 AE: Palpitations ([1]; human, in vivo, 48 weeks): 0 n
- Grade 3 or 4 AE: Psychiatric disorders ([1]; human, in vivo, 48 weeks): 1 n
- Grade 3 or 4 AE: Pyrexia ([1]; human, in vivo, 48 weeks): 0 n
- Grade 3 or 4 AE: Skin and subcutaneous tissue disorders ([1]; human, in vivo, 48 weeks): 1 n
- Grade 3 or 4 AE: Stress ([1]; human, in vivo, 48 weeks): 0 n
- Grade 3 or 4 AE: Tinnitus ([1]; human, in vivo, 48 weeks): 1 n
- Grade 3 or 4 AE: Weight decreased ([1]; human, in vivo, 48 weeks): 1 n
- Insomnia, % ([1]; human, in vivo, 48 weeks): (14%)
- Lymphadenopathy, % ([1]; human, in vivo, 48 weeks): (14%)
- Nasopharyngitis, % ([1]; human, in vivo, 48 weeks): (4%)
- SAE: Blindness unilateral ([1]; human, in vivo, 48 weeks): 0 n
- SAE: Corneal infection ([1]; human, in vivo, 48 weeks): 0 n
- SAE: Depression ([1]; human, in vivo, 48 weeks): 1 n
- SAE: Eye disorders ([1]; human, in vivo, 48 weeks): 0 n
- SAE: Gastroenteritis ([1]; human, in vivo, 48 weeks): 0 n
- SAE: Infections and infestations ([1]; human, in vivo, 48 weeks): 0 n
- SAE: Psychiatric disorders ([1]; human, in vivo, 48 weeks): 1 n
- Subjects with serious AEs ([1]; human, in vivo, 48 weeks): 1 n
- Subjects with ≥1 AE ([1]; human, in vivo, 48 weeks): 27 n
- Any fasting laboratory abnormality, worst Grade 1 [2, 3]: 6 (21%) n (%)
- Any fasting laboratory abnormality, worst Grade 2 [2, 3]: 3 (11%) n (%)
- Any fasting laboratory abnormality, worst Grade 3 [2, 3]: 0 n (%)
- Any fasting laboratory abnormality, worst Grade 4 [2, 3]: 0 n (%)
- Any graded (Grade 1-4) fasting laboratory abnormality [2, 3]: 9 (32%) n (%)
- Fasting LDL cholesterol abnormality, Grade 1 [2, 3]: 3 (11%) n (%)
- Fasting LDL cholesterol abnormality, Grade 2 [2, 3]: 3 (11%) n (%)
- Fasting LDL cholesterol abnormality, Grade 3 [2, 3]: 0 n (%)
- Fasting LDL cholesterol abnormality, Grade 4 [2, 3]: 0 n (%)
- Fasting LDL cholesterol abnormality, any grade [2, 3]: 6 (21%) n (%)
- Fasting glucose (serum, high) abnormality, Grade 1 [2, 3]: 2 (7%) n (%)
- Fasting glucose (serum, high) abnormality, Grade 2 [2, 3]: 0 n (%)
- Fasting glucose (serum, high) abnormality, Grade 3 [2, 3]: 0 n (%)
- Fasting glucose (serum, high) abnormality, Grade 4 [2, 3]: 0 n (%)
- Fasting glucose (serum, high) abnormality, any grade [2, 3]: 2 (7%) n (%)
- Fasting total cholesterol abnormality, Grade 1 [2, 3]: 6 (21%) n (%)
- Fasting total cholesterol abnormality, Grade 2 [2, 3]: 3 (11%) n (%)
- Fasting total cholesterol abnormality, Grade 3 [2, 3]: 0 n (%)
- Fasting total cholesterol abnormality, Grade 4 [2, 3]: 0 n (%)
- Fasting total cholesterol abnormality, any grade [2, 3]: 9 (32%) n (%)
- Fasting triglycerides abnormality, Grade 1 [2, 3]: 0 n (%)
- Fasting triglycerides abnormality, Grade 2 [2, 3]: 0 n (%)
- Fasting triglycerides abnormality, Grade 3 [2, 3]: 0 n (%)
- Fasting triglycerides abnormality, Grade 4 [2, 3]: 0 n (%)
- Fasting triglycerides abnormality, any grade [2, 3]: 0 n (%)
- Fasting HDL, mean change from baseline ([2]; All CVC, EFV, Week 4): 5.90 mg/dL
- Fasting total cholesterol, mean change from baseline ([2]; All CVC, EFV, Week 4): 19 mg/dL
- Fasting total cholesterol/HDL ratio, mean change from baseline ([2]; All CVC, EFV, Week 4): −0.07
- Fasting triglycerides, mean change from baseline ([2]; All CVC, EFV, Week 4): 23 mg/dL
- HOMA-IR, mean change from baseline ([2]; All CVC, EFV, Week 4): 0.30
- HbA1c, mean change from baseline ([2]; All CVC, EFV, Week 4): −0.01 % Hb
- Fasting total cholesterol, mean change from baseline ([2]; All CVC, EFV, Week 12): 18 mg/dL
- Fasting total cholesterol/HDL ratio, mean change from baseline ([2]; All CVC, EFV, Week 12): −0.41
- Fasting triglycerides, mean change from baseline ([2]; All CVC, EFV, Week 12): 3 mg/dL
- HOMA-IR, mean change from baseline ([2]; All CVC, EFV, Week 12): 0.06
- HbA1c, mean change from baseline ([2]; All CVC, EFV, Week 12): −0.07 % Hb
- Fasting total cholesterol, mean change from baseline ([2]; All CVC, EFV, Week 24): 24 mg/dL
- Fasting total cholesterol/HDL ratio, mean change from baseline ([2]; All CVC, EFV, Week 24): −0.47
- Fasting triglycerides, mean change from baseline ([2]; All CVC, EFV, Week 24): 10 mg/dL
- HbA1c, mean change from baseline ([2]; All CVC, EFV, Week 24): −0.01 % Hb
- Fasting total cholesterol, mean change from baseline ([2]; All CVC, EFV, Week 48): 26 mg/dL
- HOMA-IR, mean change from baseline ([2]; All CVC, EFV, Week 48): −0.12
- HbA1c, mean change from baseline ([2]; All CVC, EFV, Week 48): 0.08 % Hb
- change in LDL cholesterol and HDL cholesterol ([2]; EFV, through Week 48): increases
- subjects who prematurely discontinued the study (HIV-1; EFV arm): 39%
- subjects with virologic success (HIV-1 RNA <50 copies/mL) (HIV-1; Week 24): 71%
- subjects with virologic success (HIV-1 RNA <50 copies/mL) (HIV-1; Week 48): 50%
